Test results reported in publication PMC5914176 (Journal of medicinal chemistry, 2018).
Several values for one entry are separate records, joined by “and”; a condition that tells them apart may be missing. Equal entries are not always repeated. Where two headings read alike, the source gives them in different places. Blank lines part the entries; values can stand above or below the compound they belong to.

What was measured:
[1] = in vitro; conditions: female, CD9, mouse, microsomes, three replicates
[2] = biological target: T1, DCN1-UBE2M interaction (Homo sapiens, UniProt Q96GG9); experiment: biochemical; type: binding
T1 sequence (Q96GG9 whole entry): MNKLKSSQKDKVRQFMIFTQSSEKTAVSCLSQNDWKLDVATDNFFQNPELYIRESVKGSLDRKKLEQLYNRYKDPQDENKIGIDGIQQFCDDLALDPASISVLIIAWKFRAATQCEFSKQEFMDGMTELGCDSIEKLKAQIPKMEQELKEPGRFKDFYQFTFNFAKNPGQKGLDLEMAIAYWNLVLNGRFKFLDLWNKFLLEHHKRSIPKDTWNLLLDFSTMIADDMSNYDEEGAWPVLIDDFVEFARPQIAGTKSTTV

[3] = in vivo; parameters: species or system mice
[4] = type: in vivo, mice; conditions: 14 days, 200 mg/kg oral QD or BID
[5] = test system: HCC95 cells; experiment: Western blot for cellular neddylation and substrate levels; type: cell-based
[6] = for adverse reactions or compound-related side effects after IV dosing: 48 h monitoring after single IV dose
[7] = test system: HCC95 cells; conditions: cited from earlier work
[8] = test system: DCN1/2 over remaining human DCN isoforms; conditions: cited from earlier work
[9] = test system: HCC95 cells; conditions: cited from earlier work; remark: listed apart in the source
[10] = in vivo; conditions: mouse, iv, 1.5 mg/kg, t1/2 (IV half-life), IV 0.5, 1.0 and 1.5 mg/kg, plasma
[11] = Liver microsomal stability; conditions: for t(1/2): mouse microsomes, 0.8 μM, mean ± SD, three replicates
[12] = biological target: T1, DCN1-UBE2M interaction; conditions: previously reported potency; cited from earlier work
[13] = pH 7.4, CLint’, Table 2, mean ± SD
[14] = pH 7.4, CLint’, Table 5, mean ± SD
[15] = pH 7.4, CLint, Table 1, mean ± SD
[16] = pH 7.4, CLint’, Table 3, mean ± SD
[17] = female, CD9, mouse, microsomes, pH 7.4
[18] = IC50, rounded values in running text

Structure (SMILES): CCCCN1CCC(N(Cc2ccccc2)C(=O)Nc2cc(F)cc(C(F)(F)F)c2)CC1 [Compound 47]
fold reduction in biochemical potency versus compound 7 [2]: five-fold | CLint scaled at 0.8 µM [1, 14]: 22.3 ± 4.88 mL/min/kg

Structure (SMILES): CCCC(C)N1CCC(N(Cc2ccccc2)C(=O)Nc2cccc(Cl)c2)CC1 (stereo not shown) [Compound 22]
CLint scaled at 0.8 μM [1, 13]: ≥ 500 mL/min/kg

Structure (SMILES): CCCC(C)N1CCC(N(Cc2ccccc2)C(=O)Nc2ccc(C)cc2)CC1 (stereo not shown) [Compound 28]
CLint scaled at 0.8 µM [1, 13]: 356 ± 31.9 mL/min/kg

Structure (SMILES): CCCCN1CCC(N(Cc2ccccc2)C(=O)Nc2ccc(Cl)c(Cl)c2)CC1 [Compound 67, 1-benzyl-1-(1-butylpiperidin-4-yl)-3-(3,4-dichlorophenyl)urea]
adverse reaction after oral administration ([3]; 48 h monitoring, any dose tested): did not cause a significant adverse reaction at any dose tested | half-life ([3]; mouse, in vivo, po, 200 mg/kg): 3 to 5 h | adverse reactions or compound-related side effects, repeat dosing [4]: no adverse reactions or compound-related side effects were observed | gross substrate stabilization ([5]; HCC95): does not elicit gross substrate stabilization | steady-state levels of neddylated CUL1 and CUL3 ([5]; HCC95, 48 hours, dosing at T = 0 and T = 24 hr): inhibits steady-state levels of neddylated CUL1 and CUL3 in a dose-dependent manner | levels of CUL1/CUL3 substrates NRF2 and p27 ([5]; HCC95, 48 hours, longer exposures): dose-dependent increase | fold lower clearance in mouse microsomes than compound 7: six-fold | adverse reactions or compound-related side effects after IV dosing [6]: failed to induce any measureable adverse reactions | steady-state levels of neddylated cullins (selectivity among cullins) ([7]; HCC95): selectively reduces steady-state levels of neddylated CUL1 and CUL3 while CUL2, CUL4A, and CUL5 are relatively unaffected | selectivity for DCN1/2 over other DCN isoforms [8]: high level of selectivity for inhibition of DCN1/2 over the highly homologous remaining human DCN isoforms | anchorage-independent growth [9]: inhibits the anchorage-independent growth of HCC95 cells | half-life [10]: 3 to 4 h | CLint scaled at 0.8 μM [1, 14]: 25.6 ± 4.08 mL/min/kg | t(1/2) ([11]; Table 5): 2.11 ± 0.336 h | bioavailability predicted from in vitro clearance (Fin vitro) ([11]; calculated by 1 - CL/Qh): 78%

Structure (SMILES): CCCC(C)N1CCC(N(Cc2ccccc2)C(=O)Nc2cccc(C(C)C)c2)CC1 (stereo not shown) [Compound 23]
CLint scaled at 0.8 µM [1, 13]: 256 ± 22.4 mL/min/kg

Structure (SMILES): CC(C)(C)N1CCC(N(Cc2ccc3c(c2)OCO3)C(=O)Nc2cccc(C(F)(F)F)c2)CC1 [Compound 9]
CLint scaled at 0.8 µM [1, 15]: 434 ± 21.1 mL/min/kg

Structure (SMILES): CCCC(C)N1CCC(N(Cc2ccccc2)C(=O)Nc2ccc(C#N)c(C(F)(F)F)c2)CC1 (stereo not shown) [Compound 34]
CLint scaled at 0.8 µM [11, 17]: 61.3 ± 3.49 mL/min/kg | CLint scaled at 0.8 μM [11, 17]: 60 mL/min/kg

Structure (SMILES): CCCC(C)N1CCC(N(Cc2ccccc2)C(=O)Nc2ccc3c(c2)CCC3)CC1 (stereo not shown) [Compound 43]
CLint scaled at 0.8 μM [1, 16]: ≥ 500 mL/min/kg

Structure (SMILES): CCCC(C)N1CCC(N(Cc2ccccc2)C(=O)Nc2ccc(Br)cc2)CC1 (stereo not shown) [Compound 26]
IC50 [2, 18]: ~60 nM | CLint scaled at 0.8 µM [1, 13]: 148 ± 7.63 mL/min/kg

Structure (SMILES): CCCC(C)N1CCC(N(Cc2ccccc2)C(=O)Nc2ccc3ncsc3c2)CC1 (stereo not shown) [Compound 42]
CLint scaled at 0.8 µM [1, 16]: 240 ± 24 mL/min/kg

Structure (SMILES): CCCC(C)N1CCC(N(Cc2ccccc2)C(=O)Nc2ccc(Cl)cc2)CC1 (stereo not shown) [Compound 25]
IC50 ([2]; IC50): 100 nM | CLint scaled at 0.8 µM [1, 13]: 156 ± 10.7 mL/min/kg

Structure (SMILES): CCCC(C)N1CCC(N(Cc2ccccc2)C(=O)Nc2ccc(C(C)C)cc2)CC1 (stereo not shown) [Compound 29]
CLint scaled at 0.8 µM [1, 13]: 323 ± 4.46 mL/min/kg

Structure (SMILES): O=C(Nc1cccc(C(F)(F)F)c1)NC1CCN(Cc2ccccc2)CC1 [Compound 2]
CLint scaled at 0.8 µM [1, 15]: 91.4 ± 8.12 mL/min/kg

Structure (SMILES): CCCC(C)N1CCC(N(Cc2ccccc2)C(=O)Nc2cccc(C(F)(F)F)c2)CC1 (stereo not shown) [Compound 7, 1-benzyl-1-(1-(pentan-2-yl)piperidin-4-yl)-3-(3-(trifluoromethyl)phenyl)urea]
fold more potent than initial hit (compound 2) [2]: 100 fold | adverse reactions or compound-related side effects after IV dosing [6]: We did not observe any adverse reactions or compound-related side effects | t1/2 (IV half-life) ([6]; IV 0.5, 1.0 and 1.5 mg/kg, plasma): 8.4 to 12 min | IC50 [12]: 60 nM | steady-state levels of cullin neddylation ([7]; HCC95 cells): suppresses steady-state levels of cullin neddylation | CLint scaled at 0.8 μM [1, 15]: 165 ± 25.9 mL/min/kg | t(1/2) ([11]; Table 1): 0.327 ± 0.010 h

Structure (SMILES): CCCN1CCC(N(Cc2cc(F)cc(C(F)(F)F)c2)C(=O)Nc2cccc(C(F)(F)F)c2)CC1 [Compound 10]
CLint scaled at 0.8 µM [1, 15]: 199 ± 9.99 mL/min/kg

Structure (SMILES): CCCC(C)N1CCC(N(Cc2ccccc2)C(=O)Nc2ccc(Cl)c([N+](=O)[O-])c2)CC1 (stereo not shown) [Compound 31]
CLint scaled at 0.8 µM [1, 16]: 151 ± 10.2 mL/min/kg

Structure (SMILES): CCCC(C)N1CCC(N(Cc2ccccc2)C(=O)Nc2ccc(I)cc2)CC1 (stereo not shown) [Compound 27]
IC50 [2, 18]: ~60 nM and 50 nM | CLint scaled at 0.8 µM [1, 13]: 115 ± 2.78 mL/min/kg

Other lines, results leading:

CLint scaled at 0.8 μM [1, 13]: ≥ 500 mL/min/kg
Structure (SMILES): CCCC(C)N1CCC(N(Cc2ccccc2)C(=O)Nc2cccc(F)c2)CC1 (stereo not shown) [Compound 21]

CLint scaled at 0.8 µM [1, 14]: 305 ± 4.02 mL/min/kg
Structure (SMILES): CCCCN1CCC(N(Cc2ccccc2)C(=O)Nc2cccc(C)c2)CC1 [Compound 64]

CLint scaled at 0.8 µM [1, 15]: 318 ± 29.6 mL/min/kg
Structure (SMILES): CCCN1CCC(N(Cc2ccccc2)C(=O)Nc2cccc(C(F)(F)F)c2)CC1 [Compound 4]

CLint scaled at 0.8 μM [1, 14]: ≥ 500 mL/min/kg
Structure (SMILES): CCCCN1CCC(N(Cc2ccccc2)C(=O)Nc2cccc(C(F)(F)F)c2F)CC1 [Compound 69]

CLint scaled at 0.8 μM [1, 14]: ≥ 500 mL/min/kg
Structure (SMILES): CCCCN1CCC(N(Cc2ccccc2)C(=O)Nc2cccc(Cl)c2)CC1 [Compound 63]

CLint scaled at 0.8 µM [1, 14]: 349 ± 22.5 mL/min/kg
Structure (SMILES): CCCCN1CCC(N(Cc2ccccc2)C(=O)Nc2cccc(C#N)c2)CC1 [Compound 66]

CLint scaled at 0.8 µM [1, 15]: 220 ± 12.8 mL/min/kg
Structure (SMILES): CCCCN1CCC(N(Cc2ccc3c(c2)OCO3)C(=O)Nc2cccc(C(F)(F)F)c2)CC1 [Compound 8]

CLint scaled at 0.8 µM [1, 14]: 38.7 ± 1.63 mL/min/kg
Structure (SMILES): CCCCN1CCC(N(Cc2ccccc2)C(=O)Nc2ccc(F)c(Cl)c2)CC1 [Compound 72]

CLint scaled at 0.8 µM [1, 16]: 145 ± 9.51 mL/min/kg
Structure (SMILES): CCCC(C)N1CCC(N(Cc2ccccc2)C(=O)Nc2ccc(F)c(C(F)(F)F)c2)CC1 (stereo not shown) [Compound 35]

CLint scaled at 0.8 μM [1, 16]: < 13.5 mL/min/kg
Structure (SMILES): CCCC(C)N1CCC(N(Cc2ccccc2)C(=O)Nc2ccc(C(F)(F)F)nc2C)CC1 (stereo not shown) [Compound 41]

CLint scaled at 0.8 µM [1, 16]: 302 ± 15.2 mL/min/kg
Structure (SMILES): CCCC(C)N1CCC(N(Cc2ccccc2)C(=O)Nc2ccc(F)c(F)c2)CC1 (stereo not shown) [Compound 32]

CLint scaled at 0.8 µM [1, 16]: 230 ± 13.1 mL/min/kg
Structure (SMILES): CCCC(C)N1CCC(N(Cc2ccccc2)C(=O)Nc2cc(Cl)ccc2F)CC1 (stereo not shown) [Compound 39]

CLint scaled at 0.8 µM [1, 13]: 125 ± 3.17 mL/min/kg
Structure (SMILES): CCCC(C)N1CCC(N(Cc2ccccc2)C(=O)Nc2ccc(C(F)(F)F)cc2)CC1 (stereo not shown) [Compound 24]

CLint scaled at 0.8 µM [1, 14]: 27.9 ± 2.71 mL/min/kg
Structure (SMILES): CCCCN1CCC(N(Cc2ccccc2)C(=O)Nc2ccc(F)c(C(F)(F)F)c2)CC1 [Compound 70]

CLint scaled at 0.8 µM [1, 16]: 381 ± 31.9 mL/min/kg
Structure (SMILES): CCCC(C)N1CCC(N(Cc2ccccc2)C(=O)Nc2ccc(C)c(F)c2)CC1 (stereo not shown) [Compound 33]

CLint scaled at 0.8 µM [1, 16]: 291 ± 22.4 mL/min/kg
Structure (SMILES): CCCC(C)N1CCC(N(Cc2ccccc2)C(=O)Nc2cc(F)cc(C(F)(F)F)c2)CC1 (stereo not shown) [Compound 36]

CLint scaled at 0.8 μM [1, 15]: > 500 mL/min/kg
Structure (SMILES): O=C(Nc1cccc(C(F)(F)F)c1)N(Cc1ccccc1)C1CCN(CC2CC2)CC1 [Compound 5]

CLint scaled at 0.8 μM [1, 15]: > 500 mL/min/kg
Structure (SMILES): CCCN1CCC(N(Cc2ccc3c(c2)OCO3)C(=O)Nc2cccc(C(F)(F)F)c2)CC1 [Compound 1]

CLint scaled at 0.8 µM [1, 15]: 361 ± 45.1 mL/min/kg
Structure (SMILES): CCCCN1CCC(N(Cc2ccccc2)C(=O)Nc2cccc(C(F)(F)F)c2)CC1 [Compound 6]

CLint scaled at 0.8 µM [1, 16]: 66.9 ± 5.15 mL/min/kg
Structure (SMILES): CCCC(C)N1CCC(N(Cc2ccccc2)C(=O)Nc2cc(C(F)(F)F)ccc2F)CC1 (stereo not shown) [Compound 38]

CLint scaled at 0.8 µM [1, 14]: 189 ± 14.5 mL/min/kg
Structure (SMILES): CCCCN1CCC(N(Cc2ccccc2)C(=O)Nc2ccc(C)c(Cl)c2)CC1 [Compound 71]

CLint scaled at 0.8 µM [1, 15]: 394 ± 55.2 mL/min/kg
Structure (SMILES): CCCN1CCC(N(Cc2ccco2)C(=O)Nc2cccc(C(F)(F)F)c2)CC1 [Compound 3]
